US10414754B2, “Indolizine compounds, a process for their preparation and pharmaceutical compositions containing them” (LES LABORATOIRES SERVIER, priority 2013, dated 2019)
Structures can show the parent of a compound that is named as a salt.

Key:
[1] = molecular target: T1, Bcl-2 protein (histag-Bcl-2, UniProtKB P10415) (Homo sapiens, UniProt P10415); assay: Inhibition of Bcl-2 by the fluorescence polarisation technique; type: binding; settings: fluorescence polarisation, 2 hours incubation; read-out: IC50 (nM) Bcl-2 FP
T1 construct: His tag
T1 sequence (P10415 whole entry): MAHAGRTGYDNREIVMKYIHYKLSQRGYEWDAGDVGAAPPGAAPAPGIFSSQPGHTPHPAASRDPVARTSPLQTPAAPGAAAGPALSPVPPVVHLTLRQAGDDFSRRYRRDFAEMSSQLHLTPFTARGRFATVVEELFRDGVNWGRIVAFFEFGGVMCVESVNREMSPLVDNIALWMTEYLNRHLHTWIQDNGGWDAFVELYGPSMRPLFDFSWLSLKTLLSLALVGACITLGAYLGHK
Method in brief: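 Fluorescence polarisation competition: His-tagged human Bcl-2 (2.50×10^−8 M final) was mixed with fluorescein-labelled peptide (1.00×10^−8 M final) and increasing compound concentrations. Buffer was 10 mM Hepes, 150 mM NaCl, 0.05% Tween20, pH 7.4. Polarisation was read after 2 h.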

[2] = system: RS4;11 leukaemia tumour line; assay: In vitro cytotoxicity (MTT) on RS4;11; type: cell-based; settings: Homo sapiens; RS4;11 cells, 48 hours exposure
Experimental: The cytotoxicity studies were carried out on the RS4;11 leukaemia tumour line.
The cells are distributed onto microplates and exposed to the test compounds for 48 hours.
The cell viability is then quantified by a colorimetric assay, the Microculture Tetrazolium Assay (Cancer Res., 1987, 47, 939-942).

| SMILES | IC50 [1] [nM] | IC50 [2] [nM] |
| --- | --- | --- |
| COC1CN(CC[C@@H]2Cc3ccccc3CN2C(=O)c2cc3c(cc2-c2cc(C(=O)N(c4ccccc4)c4ccc(O)cc4)c4n2CCCC4)OCO3)C1 [Example 44, N-(4-Hydroxyphenyl)-3-(6-{[(3S)-3-[2-(3-methoxyazetidin-1-yl)ethyl]-3,4-dihydroisoquinolin-2(1H)-yl]carbonyl}-1,3-benzodioxol-5-yl)-N-phenyl-5,6,7,8-tetrahydroindolizine-1-carboxamide] | 2.9 | 8.56 |
| C[C@@H]1Cc2ccccc2CN1C(=O)c1cc2c(cc1-c1cc(C(=O)N(c3ccc(O)cc3)c3cnn(CCN4CCOCC4)c3)c3ccccn13)OCO2 [Example 45, N-(4-Hydroxyphenyl)-3-(6-{[(3R)-3-methyl-3,4-dihydroisoquinolin-2(1,H)-yl]carbonyl}-1,3-benzodioxol-5-yl)-N-{1-[2-(morpholin-4-yl)ethyl]-1H-pyrazol-4-yl}indolizine-1-carboxamide hydrochloride] | 3.8 | 63.8 |
| C[C@@H]1Cc2ccccc2CN1C(=O)c1cc2c(cc1-c1cc(C(=O)N(c3ccc(O)cc3)c3ccncc3F)c3ccccn13)OCO2 [Example 46, N-(3-Fluoropyridin-4-yl)-N-(4-hydroxyphenyl)-3-(6-{[(3R)-3-methyl-3,4-dihydroisoquinolin-2(1H)-yl]carbonyl}-1,3-benzodioxol-5-yl)indolizine-1-carboxamide hydrochloride] | 4.1 | 27.9 |
| C[C@@H]1Cc2ccccc2CN1C(=O)c1ccc(Cl)cc1-c1cc(C(=O)N(c2ccc(O)cc2)c2cnn(C)c2)c2n1CCCC2 [Example 47, 3-(5-Chloro-2-{[(3R)-3-methyl-3,4-dihydroisoquinolin-2(1H)-yl]-carbonyl}phenyl)-N-(4-hydroxyphenyl)-N-(1-methyl-1H-pyrazol-4-yl)-5,6,7,8-tetrahydroindolizine-1-carboxamide] | 4.3 | 90.1 |
| C[C@@H]1Cc2ccccc2CN1C(=O)c1cc2c(cc1-c1cc(C(=O)N(c3ccc(O)cc3)c3cnn(C)c3)c3n1CCCC3)OCCO2 [Example 48, N-(4-Hydroxyphenyl)-3-(7-{[(3R)-3-methyl-3,4-dihydroisoquinolin-2(1H)-yl]carbonyl}-2,3-dihydro-1,4-benzodioxin-6-yl)-N-(1-methyl-1H-pyrazol-4-yl)-5,6,7,8-tetrahydroindolizine-1-carboxamide] | 3.6 | 24.7 |
| C[C@@H]1Cc2ccccc2CN1C(=O)c1ccc(Cl)cc1-c1cc(C(=O)N(c2ccncc2)c2ccc(O)cc2)c2ccccn12 [Example 49, 3-(5-Chloro-2-{[(3R)-3-methyl-3,4-dihydroisoquinolin-2(1H)-yl]-carbonyl}phenyl)-N-(4-hydroxyphenyl)-N-(pyridin-4-yl)indolizine-1-carboxamide hydrochloride] | 3.7 | 84.7 |
| CC[C@@H]1Cc2ccccc2CN1C(=O)c1ccc(Cl)cc1-c1cc(C(=O)N(c2ccc(O)cc2)c2cnc3c(ccn3C)c2)c2ccccn12 [Example 50, 3-(5-Chloro-2-{[(3R)-3-ethyl-3,4-dihydroisoquinolin-2(1H)-yl]-carbonyl}phenyl)-N-(4-hydroxyphenyl)-N-(1-methyl-1H-pyrrolo[2,3-b]pyridin-5-yl)indolizine-1-carboxamide] | 2.2 | 28.2 |
| C[C@@H]1Cc2ccccc2CN1C(=O)c1cc2c(cc1-c1cc(C(=O)N(c3ccc(O)cc3)c3ccn4ccnc4c3)c3ccccn13)OCO2 [Example 51, N-(4-Hydroxyphenyl)-N-(imidazo[1,2-a]pyridin-7-yl)-3-(6-{[(3R)-3-methyl-3,4-dihydroisoquinolin-2(1H)-yl]carbonyl}-1,3-benzodioxol-5-yl)indolizine-1-carboxamide hydrochloride] | 4.8 | 68.8 |
| C[C@@H]1Cc2ccccc2CN1C(=O)c1ccccc1-c1cc(C(=O)N(c2ccc(O)cc2)c2cnc3c(ccn3C)c2)c2ccccn12 [Example 52, N-(4-Hydroxyphenyl)-3-(2-{[(3R)-3-methyl-3,4-dihydroisoquinolin-2(1H)-yl]carbonyl}phenyl)-N-(1-methyl-1H-pyrrolo[2,3-b]pyridin-5-yl)indolizine-1-carboxamide] | 7.9 | 20.9 |
| Cc1cn2ccc(N(C(=O)c3cc(-c4cc5c(cc4C(=O)N4Cc6ccccc6C[C@H]4C)OCO5)n4ccccc34)c3ccc(O)cc3)cc2n1 [Example 53, N-(4-Hydroxyphenyl)-3-(6-{[(3R)-3-methyl-3,4-dihydroisoquinolin-2(1H)-yl]carbonyl}-1,3-benzodioxol-5-yl)-N-(2-methylimidazo[1,2-a]pyridin-7-yl)indolizine-1-carboxamide hydrochloride] | 5.4 | 70.9 |
| Cc1ccc(N(C(=O)c2cc(-c3cc4c(cc3C(=O)N3Cc5ccccc5C[C@H]3C)OCO4)n3ccccc23)c2ccc(O)cc2)cn1 [Example 54, N-(4-Hydroxyphenyl)-3-(6-{[(3R)-3-methyl-3,4-dihydroisoquinolin-2(1H)-yl]carbonyl}-1,3-benzodioxol-5-yl)-N-(6-methylpyridin-3-yl)indolizine-1-carboxamide hydrochloride] | 6.6 | 45 |
| C[C@@H]1Cc2ccccc2CN1C(=O)c1cc2c(cc1-c1cc(C(=O)N(c3ccc(O)cc3)c3cncc(F)c3)c3ccccn13)OCO2 [Example 55, N-(5-Fluoropyridin-3-yl)-N-(4-hydroxyphenyl)-3-(6-{[(3R)-3-methyl-3,4-dihydroisoquinolin-2(1H)-yl]carbonyl}-1,3-benzodioxol-5-yl)indolizine-1-carboxamide] | 5.5 | 22.8 |
| COc1cc(N(C(=O)c2cc(-c3cc4c(cc3C(=O)N3Cc5ccccc5C[C@H]3C)OCO4)n3ccccc23)c2ccc(O)cc2)ccn1 [Example 56, N-(4-Hydroxyphenyl)-N-(2-methoxypyridin-4-yl)-3-(6-{[(3R)-3-methyl-3,4-dihydroisoquinolin-2(1H)-yl]carbonyl}-1,3-benzodioxol-5-yl)indolizine-1-carboxamide] | 4.7 | 36.7 |
| O=C(c1cc2c(cc1-c1cc(C(=O)N(c3ccccc3)c3ccc(O)cc3)c3n1CCCC3)OCO2)N1CCc2ccccc2C1 [Example 57, 3-[6-(3,4-Dihydroisoquinolin-2(1H)-ylcarbonyl)-1,3-benzodioxol-5-yl]-N-(4-hydroxyphenyl)-N-phenyl-5,6,7,8-tetrahydroindolizine-1-carboxamide] | 21.2 | 282 |
| CC(C)c1cc(N(C(=O)c2cc(-c3cc4c(cc3C(=O)N3Cc5ccccc5C[C@H]3C)OCO4)n3ccccc23)c2ccc(O)cc2)ccn1 [Example 58, N-(4-Hydroxyphenyl)-3-(6-{[(3R)-3-methyl-3,4-dihydroisoquinolin-2(1H)-yl]carbonyl}-1,3-benzodioxol-5-yl)-N-[2-(propan-2-yl)pyridin-4-yl)indolizine-1-carboxamide hydrochloride] | 6.4 | 68.5 |
| C[C@@H]1Cc2ccccc2CN1C(=O)c1cc2c(cc1-c1cc(C(=O)N(c3ccc(O)cc3)c3cnc4ccnn4c3)c3ccccn13)OCO2 [Example 59, N-(4-Hydroxyphenyl)-3-(6-{[(3R)-3-methyl-3,4-dihydroisoquinolin-2(1H)-yl]carbonyl}-1,3-benzodiaxol-5-yl)-N-(pyrazolo[1,5-a]pyrimidin-6-yl)indolizine-1-carboxamide] | 4 | 21.2 |
